Test results: article PMC11589570, “Critical assessment of LC3/GABARAP ligands used for degrader development and ligandability of LC3/GABARAP binding pockets” (Nature Communications, 2024)
Values joined by “and” are separate entries in the source; they are usually repeats but may differ in a detail not shown here. Equal entries are not always repeated.

Experiments:
Test in all cases: FP assay with Cy5-labelled p62 LIR tracer (protein titration and tracer displacement)
Format in all cases: binding
[1] = target: LC3C (Homo sapiens, UniProt Q9BXW4); settings: for normalized FP signal, p62 LIR tracer displacement: LC3C; for compound titration LC3C (displacement curve, FP signal): two replicate columns per compound
LC3C, sequence (Q9BXW4 1-126): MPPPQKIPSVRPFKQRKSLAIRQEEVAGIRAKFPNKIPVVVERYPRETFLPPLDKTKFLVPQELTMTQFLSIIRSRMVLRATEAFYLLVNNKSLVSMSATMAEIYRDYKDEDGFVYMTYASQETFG

[2] = target: GABARAP (Homo sapiens, UniProt O95166); settings: for normalized FP signal, p62 LIR tracer displacement: GABARAP; for compound titration GABARAP (displacement curve, FP signal): two replicate columns per compound
GABARAP, sequence (O95166 1-116): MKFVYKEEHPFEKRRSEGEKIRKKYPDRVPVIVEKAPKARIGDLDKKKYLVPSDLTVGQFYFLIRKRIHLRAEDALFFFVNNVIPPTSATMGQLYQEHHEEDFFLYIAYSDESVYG

[3] = target: GABARAPL1 (Homo sapiens, UniProt Q9H0R8); settings: GABARAPL1
GABARAPL1, sequence (Q9H0R8 whole entry): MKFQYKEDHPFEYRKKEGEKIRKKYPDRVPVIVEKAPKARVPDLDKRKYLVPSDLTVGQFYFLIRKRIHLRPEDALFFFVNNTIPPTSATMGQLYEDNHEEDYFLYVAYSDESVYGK

[4] = log10 concentration [M] -3.82391, listed as 8F20
[5] = log10 concentration [M] -4.1549, listed as 8F20
[6] = log10 concentration [M] -4.60206, listed as 8F20
[7] = log10 concentration [M] -5, listed as 8F20
[8] = log10 concentration [M] -5.30103, listed as 8F20
[9] = log10 concentration [M] -5.69897, listed as 8F20
[10] = log10 concentration [M] -6.22185, listed as 8F20
[11] = log10 concentration [M] -6.69897, listed as 8F20
[12] = log10 concentration [M] -7.30103, listed as 8F20
[13] = log10 concentration [M] -7.79588
[14] = log10 concentration [M] -7.79588, listed as 8F20
[15] = log10 concentration [M] -8.08092, listed as 8F20
[16] = log10 concentration [M] -3.82391
[17] = log10 concentration [M] -4.1549
[18] = log10 concentration [M] -4.60206
[19] = log10 concentration [M] -5.30103
[20] = log10 concentration [M] -5.69897
[21] = log10 concentration [M] -6.22185
[22] = log10 concentration [M] -6.69897
[23] = log10 concentration [M] -7.30103
[24] = log10 concentration [M] -8.08092

Cc1ccc(C(=O)N(CCCN)[C@@H](c2nc3cc(Cl)ccc3c(=O)n2Cc2ccccc2)C(C)C)cc1 [compound 3, (R)-N-(3-aminopropyl)-N-(1-(3-benzyl-7-chloro-4-oxo-3,4-dihydroquinazolin-2-yl)−2-methylpropyl)−4-methylbenzamide]
normalized FP signal, p62 LIR tracer displacement [1, 4]: 89.8 and 92.8
normalized FP signal, p62 LIR tracer displacement [1, 5]: 92.6 and 95.4
normalized FP signal, p62 LIR tracer displacement [1, 6]: 97.8 and 100.8
normalized FP signal, p62 LIR tracer displacement [1, 7]: 94.6 and 96.4
normalized FP signal, p62 LIR tracer displacement [1, 8]: 98.8 and 92.6
normalized FP signal, p62 LIR tracer displacement [1, 9]: 85.8 and 92.2
normalized FP signal, p62 LIR tracer displacement [1, 10]: 93.8 and 95
normalized FP signal, p62 LIR tracer displacement [1, 11]: 99.2 and 96.4
normalized FP signal, p62 LIR tracer displacement [1, 12]: 101 and 100.8
normalized FP signal, p62 LIR tracer displacement [1, 13]: 94.6
normalized FP signal, p62 LIR tracer displacement [1, 14]: 93.4
normalized FP signal, p62 LIR tracer displacement [1, 15]: 95.2 and 100.4
compound titration LC3C (displacement curve, FP signal) [1, 16]: 89.8 and 92.8
compound titration LC3C (displacement curve, FP signal) [1, 17]: 92.6 and 95.4
compound titration LC3C (displacement curve, FP signal) [1, 18]: 97.8 and 100.8
compound titration LC3C (displacement curve, FP signal) ([1]; log10 concentration [M] -5): 94.6 and 96.4
compound titration LC3C (displacement curve, FP signal) [1, 19]: 98.8 and 92.6
compound titration LC3C (displacement curve, FP signal) [1, 20]: 85.8 and 92.2
compound titration LC3C (displacement curve, FP signal) [1, 21]: 93.8 and 95
compound titration LC3C (displacement curve, FP signal) [1, 22]: 99.2 and 96.4
compound titration LC3C (displacement curve, FP signal) [1, 23]: 101 and 100.8
compound titration LC3C (displacement curve, FP signal) [1, 13]: 93.4 and 94.6
compound titration LC3C (displacement curve, FP signal) [1, 24]: 95.2 and 100.4
normalized FP signal, p62 LIR tracer displacement [2, 4]: 89.6552 and 90.5172
normalized FP signal, p62 LIR tracer displacement [2, 5]: 93.7931 and 93.9655
normalized FP signal, p62 LIR tracer displacement [2, 6]: 101.379 and 97.931
normalized FP signal, p62 LIR tracer displacement [2, 7]: 97.4138 and 100.172
normalized FP signal, p62 LIR tracer displacement [2, 8]: 96.2069 and 97.931
normalized FP signal, p62 LIR tracer displacement [2, 9]: 90 and 89.6552
normalized FP signal, p62 LIR tracer displacement [2, 10]: 96.2069 and 96.5517
normalized FP signal, p62 LIR tracer displacement [2, 11]: 96.5517 and 96.3793
normalized FP signal, p62 LIR tracer displacement [2, 12]: 100 and 98.2759
normalized FP signal, p62 LIR tracer displacement [2, 13]: 95.5172
normalized FP signal, p62 LIR tracer displacement [2, 15]: 97.069 and 98.1034
compound titration GABARAP (displacement curve, FP signal) [2, 16]: 89.6552 and 90.5172
compound titration GABARAP (displacement curve, FP signal) [2, 17]: 93.7931 and 93.9655
compound titration GABARAP (displacement curve, FP signal) [2, 18]: 101.379 and 97.931
compound titration GABARAP (displacement curve, FP signal) ([2]; log10 concentration [M] -5): 97.4138 and 100.172
compound titration GABARAP (displacement curve, FP signal) [2, 19]: 96.2069 and 97.931
compound titration GABARAP (displacement curve, FP signal) [2, 20]: 90 and 89.6552
compound titration GABARAP (displacement curve, FP signal) [2, 21]: 96.2069 and 96.5517
compound titration GABARAP (displacement curve, FP signal) [2, 22]: 96.5517 and 96.3793
compound titration GABARAP (displacement curve, FP signal) [2, 23]: 100 and 98.2759
compound titration GABARAP (displacement curve, FP signal) [2, 13]: 95.5172
compound titration GABARAP (displacement curve, FP signal) [2, 24]: 97.069 and 98.1034
normalized FP signal, p62 LIR tracer displacement [3, 4]: 96.5714 and 97.4286
normalized FP signal, p62 LIR tracer displacement [3, 5]: 97.2857 and 99
normalized FP signal, p62 LIR tracer displacement [3, 18]: 101
normalized FP signal, p62 LIR tracer displacement [3, 7]: 101.143 and 102
normalized FP signal, p62 LIR tracer displacement [3, 19]: 100.143
normalized FP signal, p62 LIR tracer displacement [3, 9]: 94.7143 and 94.5714
normalized FP signal, p62 LIR tracer displacement [3, 10]: 98.2857 and 100.429
normalized FP signal, p62 LIR tracer displacement [3, 11]: 99.7143 and 102.286
normalized FP signal, p62 LIR tracer displacement [3, 12]: 103.571 and 102.286
normalized FP signal, p62 LIR tracer displacement [3, 14]: 96.8571 and 101.571
normalized FP signal, p62 LIR tracer displacement [3, 15]: 99.1429 and 98.1429
